Usually Ki stands for the equilibrium dissociation constant of an inhibitor or competing ligand from its target. High values mean weaker binding, low ones tighter binding.

The values that follow come from US20090099187A1, “Novel 8-Sulfonyl-3 Aminosubstituted Chroman or Tetrahydronaphtalene Derivatives Modulating the 5HT6 Receptor” (AstraZeneca AB, priority 2005, published 2009).

In this test the target is rat striatal 5HT6 receptors (Rattus norvegicus, UniProt P31388).
Sequence of rat striatal 5HT6 receptors (P31388 whole entry): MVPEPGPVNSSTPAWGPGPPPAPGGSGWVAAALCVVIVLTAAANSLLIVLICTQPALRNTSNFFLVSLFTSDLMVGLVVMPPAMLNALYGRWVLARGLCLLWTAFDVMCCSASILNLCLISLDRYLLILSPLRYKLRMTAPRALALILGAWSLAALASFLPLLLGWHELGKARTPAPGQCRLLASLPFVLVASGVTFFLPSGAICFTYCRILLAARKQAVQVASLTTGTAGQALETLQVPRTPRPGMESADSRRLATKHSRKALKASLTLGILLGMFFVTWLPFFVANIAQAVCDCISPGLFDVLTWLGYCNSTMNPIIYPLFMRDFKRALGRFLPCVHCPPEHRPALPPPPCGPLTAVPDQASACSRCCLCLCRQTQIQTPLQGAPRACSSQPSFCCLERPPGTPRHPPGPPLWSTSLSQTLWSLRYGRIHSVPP
Experimental: Striatal tissue from adult rats (Sprague-Dawley, 320-370 g, B & K Sweden) were dissected out, weighed and homogenized in buffer containing 50 mM Tris-HCl, 4 mM MgCl2, 1 mM EDTA, 10 μM pargyline and protease inhibitor (Complete, Roche Diagnostics) pH 7.4 using an Ultra-Turrax T8 (IKA Labortechnik, Germany). The tissue homogenate was centrifuged at 48 000×g for 10 min and the pellet was resuspended and recentrifuged as above. The final membranes were diluted in buffer to a concentration of 60 mg original wet weight (w.w.) per ml and stored in aliquots at −70° C.
Non-specific binding was determined in the presence of 10 μM methiothepin. In the competition experiments 0.8-2 mg w.w. per tube and a radioligand concentration of 0.5-1 nM were used with 7 concentrations of the competing drug pre-dissolved in DMSO and diluted in buffer. The assays were incubated for 1-3 hours at room temperature, and terminated by rapid filtration through Whatman GF/B filters pretreated with 0.3% polyethyleneimine using a Brandel cell harvester. The radioactivity was determined in a Packard Tri-Carb 2900TR liquid scintillation counter. Data were analyzed by non-linear regression analyses using PRISM 4.00 (GraphPad Software Inc., San Diego, Calif.).
With `COc1ccc(S(=O)(=O)Nc2ccccn2)c2c1C[C@@H](N(C)C)CC2` [Example 18, (6S)-6-(Dimethylamino)-4-methoxy-N-pyridin-2-yl-5,6,7,8-tetrahydronaphthalene-1-sulfonamide], the affinity, expressed as Ki, was 17 ± 5 nM.

In turn, `CCc1ccc(S(=O)(=O)Nc2ccc(F)c(Cl)c2)c2c1C[C@@H](N(C)C)CO2` [Example 72, (3R)—N-(3-Chloro-4-fluorophenyl)-3-(dimethylamino)-5-ethylchromane-8-sulfonamide] returned a Ki of 290 ± 50 nM.

`COc1ccc(Cl)cc1NS(=O)(=O)c1ccc(OC)c2c1CC[C@H](N(C)C)C2` [Example 1, (6S)—N-(5-Chloro-2-methoxyphenyl)-6-(dimethylamino)-4-methoxy-5,6,7,8-tetrahydronaphthalene-1-sulfonamide] returned a Ki of 1.7 ± 0.6 nM.

`CN[C@H]1COc2c(S(=O)(=O)Nc3ccccc3)ccc(OC)c2C1` [Example 71, (3R)-5-Methoxy-3-(methylamino)-N-phenylchromane-8-sulfonamide]: the Ki turned out to be 30 ± 7 nM.

As for `COc1ccc(S(=O)(=O)Nc2cc(Cl)cc(Cl)c2)c2c1C[C@@H](N1CCCC1)CO2` [Example 69, (3R)—N-(3,5-Dichlorophenyl)-5-methoxy-3-pyrrolidin-1-ylchromane-8-sulfonamide], affinity was put at a Ki of 27 ± 16 nM.

Consider `COc1ccc(S(=O)(=O)N2CCc3ccccc3C2)c2c1C[C@@H](N(C)C)CC2` [Example 21, [5-(3,4-Dihydro-1H-isoquinoline-2-sulfonyl)-8-methoxy-1,2,3,4-tetrahydro-naphthalen-2-yl]-dimethyl-amine], for which the affinity corresponds to a Ki of 4.2 ± 1.4 nM.

For `COc1ccc(Cl)cc1NS(=O)(=O)c1ccc(OC)c2c1OC[C@H](N(C)C)C2` [Example 60, (3R)—N-(5-Chloro-2-methoxyphenyl)-3-(dimethylamino)-5-methoxychromane-8-sulfonamide], the affinity corresponds to a Ki of 2.3 ± 1.3 nM.

`CN[C@H]1CCc2c(S(=O)(=O)Nc3ccc(Cl)cc3)ccc(OC)c2C1` [Example 25, (6S)—N-(4-chlorophenyl)-4-methoxy-6-(methylamino)-5,6,7,8-tetrahydronaphthalene-1-sulfonamide] showed a Ki of 12 ± 4.2 nM. Against the preceding compound, the Ki is about 5.2-fold higher.
